Laboratory results taken from US7705016B2, “Regulation of food intake by modulation of long-chain fatty acyl-CoA levels in the hypothalamus” (Albert Einstein College of Medicine of Yeshiva University, priority 2003, dated 2010).
Values joined by “and” are separate entries in the source; they are usually repeats but may differ in a detail not shown here. Equal values may be shown once. “Also recorded” adds a separate entry of the source.

Tested on: male Sprague-Dawley (S-D) rats
Assay: ICV OA infusion with pancreatic-insulin clamp (insulin action studies)
Format: in vivo, rat
Settings: for effect on GP: over-fed rats (HF140)
Source text: Insulin action studies. The experimental protocol herein was designed to examine the effect of nutritional status on the ability of long-chain fatty acids in the hypothalamus to modulate carbohydrate metabolism. Rats (n=43) were implanted with chronic catheters as previously described (Liu et al., 1998). After full recovery from the catheterization, animals were randomized into three groups HF55 (n=16), HF80 (n=9), or HF140 (n=18) and were allowed to consume their allocated diet for three days. On the night prior to the in vivo study all rats received 55 kcal to ensure a similar nutritional state at the start of the metabolic studies. All studies were performed in awake, unstressed, chronically catheterized rats. At t=−120 (FIG. 7a), a primed-continuous infusion of ICV OA (total dose 30- or 300-nmol) or Vehicle (HBP 10% in aCSF) was initiated and maintained throughout the duration of the study. Plasma glucose was measured periodically initiating at the onset (t=−120) of the ICV infusion and lasting throughout the duration of the study. Plasma samples for determination of insulin, leptin, and non-esterified fatty acid concentration were obtained at the onset (t=−120) and at 30 min intervals during the study. At t=0, and a primed-continuous infusion of HPLC-purified [3-3H]-glucose (New England Nuclear, Boston, Mass.; 40 μCi bolus, 0.4 μCi/min for duration of the study) was initiated and maintained for the last four hours of the study. Samples for determination of ^3H-glucose specific activity were obtained at 10-minute intervals throughout infusions. Finally, at t=120, a pancreatic-insulin clamp study was initiated and maintained for two hours. During this procedure, a primed-continuous infusion of regular insulin (1 mU/kg/min) was administered, and a variable infusion of 25% glucose solution was started at t=120 and periodically adjusted to clamp the plasma glucose concentration at ˜7 mM. The rate of insulin infusion was designed to replace the plasma insulin concentration at ˜the average basal levels in post-absorptive rats. In order to control for possible effects of the ICV injections on endocrine pancreas, somatostatin (3 μg/kg/min) was coinfused with insulin to inhibit endogenous insulin secretion. At the end of the in vivo studies, rats were anesthetized (pentobarbital 55 mg/kg body weight, intravenously) and tissue samples were freeze-clamped in situ with aluminum tongs pre-cooled in liquid nitrogen. All tissue samples were stored at −80° C. for subsequent analysis.
Analytical Procedures and Calculations. Plasma glucose was measured by the glucose oxidase method (Glucose Analyzer II, Beckman Instruments, Inc. Fullerton, Calif., USA). Plasma insulin and leptin levels were determined by RIA (rat Leptin RIA kit, Linco Research Inc., St. Charles, Mo.). Serum adiponectin was measured by RIA (Linco Research, Inc., St. Charles, Mo.). Plasma non-esterified fatty acid concentrations were determined an enzymatic method by an automated kit according to the manufacturer's specifications (Waco Pure Chemical Industries. Osaka, Japan). The radioactivity of [3-^3H]glucose in plasma was measured from supernatants of Ba (OH)2 and from ZnSO4 precipitates (Somogyi procedure), after each was evaporated to dryness for the removal of tritiated water. […]

SMILES: CCCCCCCC/C=C\CCCCCCCC(=O)O [OA, oleic acid]
- inhibition of GP, decrease from basal (HF55, ICV OA 30 nmol): 71%
- GIR required to maintain euglycemia (HF80, ICV OA 30 nmol): 4.64 mg/kg/min and ~9 mg/kg/min
- effect on GP (ICV OA 30 nmol): failed to significantly alter GP
- effect on GP (ICV OA 300 nmol): failed to significantly decrease GP; also recorded: failed to significantly alter GP
- rate of glucose disappearance (Rd) (pancreatic-insulin clamp, any of the experimental groups): did not significantly modify; also recorded: not significantly affected
